Measured values as given in patent publication US10842783B2, “Avibactam and carbapenems antibacterial agents” (THE JOHNS HOPKINS UNIVERSITY, priority 2017, dated 2020).
Entries after “also recorded” stand apart in the source; their conditions may differ. Read-outs that look alike come from different tables or passages of the source.

Legend:
M. abscessus ATCC 19977 = assay: Broth microdilution MIC of carbapenems with and without β-lactamase inhibitors, reference strain; format: cell-based, Mycobacterium abscessus; settings: for Minimum inhibitory concentration, 7H9 + avibactam / Minimum inhibitory concentration, CAMHB + avibactam: avibactam at fixed 4 μg/mL; for Minimum inhibitory concentration, 7H9 + sulbactam: sulbactam at fixed 4 μg/mL; for Minimum inhibitory concentration, 7H9 + tazobactam: tazobactam at fixed 4 μg/mL; for MIC: Mycobacteroides abscessus; for Ability of the β-lactamase inhibitor to reduce MICs of carbapenems, in words: inhibitor at 4 μg/mL
Method: (§1) All strains were initially grown in 7H9 complete medium composed of Middlebrook 7H9 broth (Difco) supplemented with 0.5% glycerol, 10% oleic acid-albumin-dextrose-catalase and 0.05% Tween-80 at 37° C. with constant shaking. A standard broth microdilution method was used to determine MIC. Briefly, M. abscessus strains were grown as described above and these cultures, at exponential phase (A600 nm˜0.6-0.8), were used to inoculate 10^5 colony forming units (CFU) into each well of microtiter culture plates containing a carbapenem at two fold serial dilutions ranging from 256 to 0.25 μg/mL. An identical setup but with wells containing 4 μg/mL of avibactam was used to assess the effect of this agent on each carbapenem. Carbapenems studied were procured commercially from Sigma-Aldrich and include ertapenem, meropenem, imipenem, doripenem, biapenem, faropenem, tebipenem and panipenem. β-lactamase inhibitors sulbactam, tazobactam and avibactam were also procured from Sigma-Aldrich. In addition, to establish baseline antibacterial susceptibility for each strain we also determined MICs for drugs currently used to treat M. abscessus infections. They are linezolid, cefoxitin, kanamycin, ciprofloxacin, moxifloxacin, amikacin, tigecycline, imipenem, tobramycin, trimethoprim/sulfamethoxazole, and clarithromycin. M. abscessus growth was evaluated by visual inspection of pellets after 3 days of incubation (the exception being clarithromycin for which incubation was extended to 14 days) at 30° C. without shaking per CLSI guidelines. In addition to assessment in 7H9 complete medium, we also used cation adjusted Mueller-Hinton broth for MIC studies for the reference strain M. abscessus ATCC 19977. All experiments were repeated and the final data represent the average of two biological replicates.
We studied the utility of β-lactamase inhibitors sulbactam, tazobactam, and avibactam in restoring in vitro potencies of carbapenems against M. abscessus using the reference drug-susceptible strain ATCC 19977. We determined MICs of ertapenem, meropenem, imipenem, doripenem, biapenem, faropenem, tebipenem and panipenem alone or in the presence of the aforementioned […] β-lactamase inhibitors.

[1] = tested on: M. abscessus clinical strains; assay: Broth microdilution MIC of carbapenems with and without avibactam, twenty eight clinical isolates; format: cell-based, Mycobacterium abscessus; settings: for Average reduction in MICs of the carbapenems in combination with avibactam: twenty eight clinical strains; for Average reduction in MICs of the carbapenems in combination with avibactam / Effect of avibactam on the MIC of the carbapenem, in words: avibactam 4 μg/mL; for Effect of avibactam on the MIC of the carbapenem, in words: clinical strains
Description: Twenty eight unique clinical isolates of M. abscessus were used in this study. These strains were obtained de-identified from the archive of the clinical microbiology laboratory of the Johns Hopkins University Hospital per institutional ethical guidelines. They were isolated over a 10 year period, from 2005-2015, from patients that were temporally and geographically unrelated. No two isolates are from the same patient. Those displaying a high level of resistance to antibacterials used for M. abscessus infection were selected for this study. All strains obtained prior to 2014 were identified to the M. abscessus complex level using a variety of methods including 16S rDNA sequencing in conjunction with selected biochemical testing such as sodium citrate. More recent isolates (those isolated after 2014) were identified using MALDI ToF mass spectrometry in which a Bruker MicroFlex LT (MicroFlex LT) mass spectrometer and Bruker Biotyper software and existing database (version 2.0, Bruker) were employed. Sub-speciation within the M. abscessus complex, which helps to distinguish between M. abscessus sensu stricto, M. massiliense, and M. bolletii, was not done as this is not per the current standard of care at the Johns Hopkins Clinical Mycobacteriology Laboratory. Distinguishing between M. abscessus sensu stricto and M. massiliense is most often performed to guide therapy since M. massiliense is known to have a non-funtional erm gene and is therefore susceptible to macrolides. However, due to the high number of macrolide resistant M. abscessus complex isolates recovered at Johns Hopkins, most patient isolates are subjected to drug susceptibility testing, making speciation within the complex of lesser importance. Thus, the proportion of each subspecies within the M. abscessus complex for the Johns Hopkins strain collection is not known. M. abscessus ATCC 19977 was included as a reference drug-sensitive strain.
as §1

[2] = in vivo; cited from earlier work
[3] = ATCC19977, 7H9 broth, drug alone, read-out: Minimum inhibitory concentration, 7H9 broth
[4] = ATCC19977, carbapenem alone, single values given, read-out: MIC of carbapenems against the drug sensitive control strain
[5] = ATCC19977, cation-adjusted Mueller-Hinton broth, drug alone, read-out: Minimum inhibitory concentration, CAMHB only
[6] = cation-adjusted Mueller-Hinton broth
[7] = with avibactam, against M. abscessus

Compound | MIC (M. abscessus ATCC 19977; [3]) | MIC (M. abscessus ATCC 19977; [4]) | MIC (M. abscessus ATCC 19977; [5]) | Average reduction in MICs of the carbapenems in combination with avibactam [1] | Fold decrease of MIC by avibactam [1, 7] | MIC of carbapenem as reduced by avibactam [1, 7] | Minimum inhibitory concentration, 7H9 + avibactam (M. abscessus ATCC 19977; 7H9 broth) | Minimum inhibitory concentration, 7H9 + sulbactam (M. abscessus ATCC 19977; 7H9 broth) | Minimum inhibitory concentration, 7H9 + tazobactam (M. abscessus ATCC 19977; 7H9 broth) | Minimum inhibitory concentration, CAMHB + avibactam (M. abscessus ATCC 19977; [6]) | Ability of the β-lactamase inhibitor to reduce MICs of carbapenems, in words (M. abscessus ATCC 19977) | Effect of avibactam on the MIC of the carbapenem, in words [1] | Average peak plasma concentration [2] | Half-life [2] | MIC (M. abscessus ATCC 19977; ATCC19977, read-out: Minimum inhibitory concentration, 7H9 broth)
C[C@@H](O)[C@H]1C(=O)N2C(C(=O)O)=C([C@H]3CCCO3)S[C@H]12 [Faropenem, faropenem] | 32 to 64 µg/mL | 64 µg/mL | 64 to 128 µg/mL | 3 fold | – | – | 8 to 16 µg/mL | 16 to 32 µg/mL | 32 to 64 µg/mL | 16 to 32 µg/mL | – | least effective | – | – | –
CC(=N)N1CC[C@H](SC2=C(C(=O)O)N3C(=O)[C@H]([C@@H](C)O)[C@H]3C2)C1 [Panipenem, panipenem] | 64 to 128 µg/mL | 128 µg/mL | 64 to 128 µg/mL | 8 fold | – | – | 8 to 16 µg/mL | 16 to 32 µg/mL | 32 to 64 µg/mL | 8 to 16 µg/mL | – | levels that are therapeutically relevant; also recorded: levels achievable in the blood | ~22 µg/mL | – | –
O=C(O)[C@H]1/C(=C/CO)O[C@@H]2CC(=O)N21 [clavulanate] | – | – | – | – | – | – | – | – | – | – | failed to observe significant reduction in MIC | – | – | – | –
CC1(C)[C@H](C(=O)O)N2C(=O)C[C@H]2S1(=O)=O [Sulbactam, sulbactam] | – | – | – | – | – | – | – | – | – | – | failed to reduce the MICs; also recorded: failed to observe significant reduction in MIC | – | – | – | > 64 µg/mL
C[C@]1(Cn2ccnn2)[C@H](C(=O)O)N2C(=O)C[C@H]2S1(=O)=O [Tazobactam, tazobactam] | > 64 µg/mL | – | – | – | – | – | – | – | – | – | failed to reduce the MICs; also recorded: failed to observe significant reduction in MIC | – | – | – | –

Continued, in another order:

MIC (M. abscessus ATCC 19977; [3]) | MIC (M. abscessus ATCC 19977; [4]) | MIC (M. abscessus ATCC 19977; [5]) | Average reduction in MICs of the carbapenems in combination with avibactam [1] | Fold decrease of MIC by avibactam [1, 7] | MIC of carbapenem as reduced by avibactam [1, 7] | Compound | Minimum inhibitory concentration, 7H9 + avibactam (M. abscessus ATCC 19977; 7H9 broth) | Minimum inhibitory concentration, 7H9 + sulbactam (M. abscessus ATCC 19977; 7H9 broth) | Minimum inhibitory concentration, 7H9 + tazobactam (M. abscessus ATCC 19977; 7H9 broth) | Minimum inhibitory concentration, CAMHB + avibactam (M. abscessus ATCC 19977; [6]) | Ability of the β-lactamase inhibitor to reduce MICs of carbapenems, in words (M. abscessus ATCC 19977) | Effect of avibactam on the MIC of the carbapenem, in words [1] | Average peak plasma concentration [2] | Half-life [2] | MIC (M. abscessus ATCC 19977; ATCC19977, read-out: Minimum inhibitory concentration, 7H9 broth)
4 to 8 µg/mL | 8 µg/mL | 8 to 16 µg/mL | 2 fold | – | – | C[C@@H](O)[C@H]1C(=O)N2C(C(=O)O)=C(SCCN=CN)C[C@H]12 [Imipenem, imipenem] | 2 to 4 µg/mL | 4 to 8 µg/mL | 2 to 4 µg/mL | 4 to 8 µg/mL | – | – | – | – | –
> 256 µg/mL | – | > 256 µg/mL | – | – | – | NC(=O)[C@@H]1CC[C@@H]2CN1C(=O)N2OS(=O)(=O)O [Avibactam, avibactam] | – | – | – | – | most active | – | – | – | –
128 to 256 µg/mL | 256 µg/mL | 128 to 256 µg/mL | > 38 fold | 32-64 fold | 4 to 8 µg/mL | C[C@@H](O)[C@H]1C(=O)N2C(C(=O)O)=C(SC3CN(C4=NCCS4)C3)[C@H](C)[C@H]12 [Tebipenem, tebipenem] | 4 to 8 µg/mL | >64 µg/mL | >64 µg/mL | 8 to 16 µg/mL | – | levels that are therapeutically relevant; also recorded: largest reduction in MIC | ~8 µg/mL | 1 h | –
64 to 128 µg/mL | 128 µg/mL | 128 to 256 µg/mL | > 13 fold | – | – | C[C@@H](O)[C@H]1C(=O)N2C(C(=O)O)=C(S[C@@H]3CN[C@H](C(=O)Nc4cccc(C(=O)O)c4)C3)[C@H](C)[C@H]12 [Ertapenem, ertapenem] | 4 to 8 µg/mL | >64 µg/mL | 32 to 64 µg/mL | 8 to 16 µg/mL | – | levels that are therapeutically relevant; also recorded: levels achievable in the blood | ~150 µg/mL | ~4 h | –
8 to 16 µg/mL | 16 µg/mL | 16 to 32 µg/mL | 6 fold | – | – | C[C@@H](O)[C@H]1C(=O)N2C(C(=O)O)=C(S[C@@H]3CN[C@H](CNS(N)(=O)=O)C3)[C@H](C)[C@H]12 [Doripenem, doripenem] | 2 to 4 µg/mL | 8 to 16 µg/mL | 8 to 16 µg/mL | 4 to 8 µg/mL | – | – | – | – | –
8 to 16 µg/mL | 16 µg/mL | 16 to 32 µg/mL | 5 fold | – | – | C[C@@H](O)[C@H]1C(=O)N2C(C(=O)[O-])=C(SC3Cn4cnc[n+]4C3)[C@H](C)[C@H]12 (some centres unmarked) [Biapenem, biapenem] | 2 to 4 µg/mL | 4 to 8 µg/mL | 8 to 16 µg/mL | 8 to 16 µg/mL | – | – | – | – | –
8 to 16 µg/mL | 16 µg/mL | 32 to 64 µg/mL | 6 fold | – | – | C[C@@H](O)[C@H]1C(=O)N2C(C(=O)O)=C(S[C@@H]3CN[C@H](C(=O)N(C)C)C3)[C@H](C)[C@H]12 [Meropenem, meropenem] | 2 to 4 µg/mL | 8 to 16 µg/mL | 8 to 16 µg/mL | 4 to 8 µg/mL | – | – | – | – | –
